Usually IC50 stands for the midpoint of a concentration-inhibition curve.

The values that follow come from ChEMBL document CHEMBL5727650, “Heteroaryl substituted aminopyridine compounds” (2020).

In this assay the target is T1, Interleukin-1 receptor-associated kinase 4 (Homo sapiens, UniProt Q9NWZ3).
T1 sequence (Q9NWZ3 whole entry): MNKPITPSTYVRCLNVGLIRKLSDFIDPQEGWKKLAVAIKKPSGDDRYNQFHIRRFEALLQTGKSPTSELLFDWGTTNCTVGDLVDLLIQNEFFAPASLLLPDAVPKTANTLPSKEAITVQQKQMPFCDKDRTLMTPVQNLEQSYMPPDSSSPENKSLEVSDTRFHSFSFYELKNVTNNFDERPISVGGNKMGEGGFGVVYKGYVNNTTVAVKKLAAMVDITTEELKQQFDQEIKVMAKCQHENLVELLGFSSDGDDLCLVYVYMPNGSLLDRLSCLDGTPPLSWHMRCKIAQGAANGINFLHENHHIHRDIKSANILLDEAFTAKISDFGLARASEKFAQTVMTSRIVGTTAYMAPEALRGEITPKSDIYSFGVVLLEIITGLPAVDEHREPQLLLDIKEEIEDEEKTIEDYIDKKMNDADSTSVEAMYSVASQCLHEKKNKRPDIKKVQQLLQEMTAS
The experiment in a line: IRAK4 Inhibition Assay: The assays were performed in U-bottom 384-well plates. The final assay volume was 30 μL prepared from 15 μL additions of enzyme and substrates (fluoresceinated peptide and ATP) and test compounds in assay buffer (20 mM HEPES pH 7.2, 10 mM MgCl2, 0.015% Brij 35 and 4 mM DTT). The reaction was initiated by the combination of IRAK4 with substrates and test compounds. The reaction mixture was incubated at room temperature for 60 min. and terminated by adding 45 μL of 35 mM EDTA to each sample. The reaction mixture was analyzed on the Caliper LABCHIP® 3000 (Caliper, Hopkinton, Mass.) by electrophoretic separation of the fluorescent substrate and phosphorylated product. Inhibition data were calculated by comparison to no enzyme control reactions for 100% inhibition and vehicle-only reactions for 0% inhibition. The final concentrations of reagents in the assays are ATP, 500 μM; FL-IPTSPITTTYFFFKKK peptide 1.5 μM; IRAK4, 0.6 nM; and DMSO, 1.6%.
As to `CCCNc1cc(-c2cnn3cc(Cl)cnc23)ncc1C(=O)NC[C@@H](F)C(C)(C)O`, the IC50 was 5 nM.
For the compound `CC(C)(F)CNc1cc(-c2cnn3cc(C#N)cnc23)ncc1C(=O)NC[C@@H](F)C(C)(C)O`, the IC50 is 12 nM.
The same measure for `CC(C)(O)[C@H](F)CNC(=O)c1cnc(-c2cnn3cc(C#N)cnc23)cc1Nc1ccc(C(N)=O)cc1`: 1 nM; for `CC(=O)N[C@H]1CC[C@H](NC(=O)c2cnc(-c3cnn4cc(C#N)cnc34)cc2NC(C)C)CC1`: 15 nM; for `CC1(Nc2cc(-c3cnc4cc(Cl)cnn34)ncc2C(=O)NC[C@H](F)C(C)(C)O)CC1`: 2 nM.
Next, `CC(C)(O)[C@H](F)CNC(=O)c1cnc(-c2cnn3cc(Cl)cnc23)cc1Nc1ccn(CC(F)F)c1`: 2 nM; `CC(C)(O)[C@H](F)CNC(=O)c1cnc(-c2cnn3cc(C#N)cnc23)cc1NC1CCC(F)(F)C1O` (some centres not stated): 13 nM.
Next, `CC(C)(O)[C@H](F)CNC(=O)c1cnc(-c2cnn3cc(C#N)cnc23)cc1Nc1ccn(CC(F)F)c1`: 2 nM; `CC(C)(C)Nc1cc(-c2cnc3cc(C#N)cnn23)ncc1C(=O)NC[C@@H](F)C(C)(C)O`: 2 nM; `COC(C)(C)[C@H]1CC[C@H](NC(=O)c2cnc(-c3cnc4cc(Cl)cnn34)cc2NC2COC2)CC1`: 7 nM.
Turning to `CC(C)(O)[C@H](F)CNC(=O)c1cnc(-c2cnn3cc(C#N)cnc23)cc1NC1CCC1`, the IC50 was 2 nM.
Next, `CC(C)(O)[C@H](F)CNC(=O)c1cnc(-c2cnn3cc(Cl)cnc23)cc1NC12CC(C1)C2`: 9 nM.
